Molecules are shown by their SMILES. ≈ marks a conversion by molar mass, not a printed value.

The results in this text go back to ChEMBL document CHEMBL5233254, “Anticancer fungal natural products: Mechanisms of action and biosynthesis” (Eur J Med Chem, 2020).

Data set [1] is described as follows: Inhibition of full-length human MEK.
Data set [2] has as its system MCF7. Nature of the data set: Cytotoxicity against human MCF7 cells. The format is functional, cell-based.
Data set [3] can be described thus: Inhibition of V-ATPase (unknown origin). Also on record: species or system Homo sapiens.
Data set [4] concerns the target 14-3-3 eta/c-RAF (Homo sapiens, UniProt P04049+Q04917). Nature of the data set: Stabilization of 14-3-3 eta (unknown origin)/ c-Raf (unknown origin). It is filed as protein-complex assay.
The nature of data set [5]: Anti-tumor activity against mouse lewis lung carcinoma cells allografted in mouse assessed as reduction in tumor growth at 2 mg/kg, po. It is filed as functional. Details: scale not given: the % may be the effect or the level left.
In data set [6] the target is T1, Heat shock factor protein 1 (Homo sapiens, UniProt Q00613).
T1 sequence (Q00613 whole entry): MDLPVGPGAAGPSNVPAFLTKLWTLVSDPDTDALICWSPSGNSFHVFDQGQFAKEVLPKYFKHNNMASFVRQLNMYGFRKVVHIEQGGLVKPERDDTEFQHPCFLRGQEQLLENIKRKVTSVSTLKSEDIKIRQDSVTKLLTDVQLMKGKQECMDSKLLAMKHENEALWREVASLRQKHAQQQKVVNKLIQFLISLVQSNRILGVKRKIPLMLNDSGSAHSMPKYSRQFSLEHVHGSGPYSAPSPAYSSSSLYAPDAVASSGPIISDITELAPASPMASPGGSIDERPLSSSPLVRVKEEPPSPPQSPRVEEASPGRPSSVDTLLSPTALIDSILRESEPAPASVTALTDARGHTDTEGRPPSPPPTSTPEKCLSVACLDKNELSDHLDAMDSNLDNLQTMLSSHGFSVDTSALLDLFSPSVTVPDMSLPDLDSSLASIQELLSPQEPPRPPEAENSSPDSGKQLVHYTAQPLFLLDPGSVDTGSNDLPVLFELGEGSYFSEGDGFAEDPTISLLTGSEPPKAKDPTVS
Nature of the data set: Induction of HSF-1 (unknown origin) degradation assessed as ATPase activity by colorimetric assay.

Data set [7] can be described thus: Inhibition of PI3K (unknown origin). Also on record: species or system Homo sapiens.
The target of data set [8] is Tubulin. Nature of the data set: Binding affinity to tubulin (unknown origin) assessed as dissociation constant. It is filed as protein-complex assay, Homo sapiens.
The target in data set [9] is Tubulin (Homo sapiens) (UniProt P68371+Q9H4B7+P0DPH7+P68366+Q13509+Q71U36+P04350+Q3ZCM7+P07437+P68363+Q9BQE3+Q6PEY2+Q13885+Q9BVA1+Q9BUF5). Nature of the data set: Inhibition of microtubule polymerization in human HeLa cells at 20 uM relative to control. It is filed as cell-based.
Data set [10] has as its system HeLa. Nature of the data set: Antimitotic activity against human HeLa cells. The format is functional, cell-based.
Data set [11] is described as follows: Cytotoxicity against human endothelial cells. It is filed as toxicity, cell-based. Conditions: endothelial cell.

Chain of 14-3-3 eta/c-RAF (P04049 whole entry): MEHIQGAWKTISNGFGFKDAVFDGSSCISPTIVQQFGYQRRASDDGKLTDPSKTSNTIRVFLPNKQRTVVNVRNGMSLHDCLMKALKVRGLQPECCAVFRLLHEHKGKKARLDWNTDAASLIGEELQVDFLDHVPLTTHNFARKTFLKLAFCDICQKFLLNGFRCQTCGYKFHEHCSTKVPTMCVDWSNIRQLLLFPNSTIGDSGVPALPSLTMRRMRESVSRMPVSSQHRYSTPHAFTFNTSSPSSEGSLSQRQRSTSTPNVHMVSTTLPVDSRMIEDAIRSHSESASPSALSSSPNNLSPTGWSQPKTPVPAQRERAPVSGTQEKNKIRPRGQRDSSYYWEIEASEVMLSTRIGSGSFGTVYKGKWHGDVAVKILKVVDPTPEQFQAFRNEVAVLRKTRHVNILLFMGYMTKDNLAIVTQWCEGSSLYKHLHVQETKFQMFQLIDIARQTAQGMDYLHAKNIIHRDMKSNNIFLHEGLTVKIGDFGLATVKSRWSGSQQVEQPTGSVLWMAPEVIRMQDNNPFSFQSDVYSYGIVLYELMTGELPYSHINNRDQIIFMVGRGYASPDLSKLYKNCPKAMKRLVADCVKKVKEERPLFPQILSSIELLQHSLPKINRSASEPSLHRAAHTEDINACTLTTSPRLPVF
Chain of 14-3-3 eta/c-RAF (Q04917 whole entry): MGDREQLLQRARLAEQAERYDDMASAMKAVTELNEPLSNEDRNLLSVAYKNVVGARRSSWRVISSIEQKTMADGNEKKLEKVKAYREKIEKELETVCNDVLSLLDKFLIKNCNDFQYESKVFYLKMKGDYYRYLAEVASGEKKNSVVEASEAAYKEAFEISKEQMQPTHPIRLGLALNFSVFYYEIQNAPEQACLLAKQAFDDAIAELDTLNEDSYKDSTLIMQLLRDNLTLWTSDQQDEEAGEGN

One may read the IC50 as the point on the concentration scale where inhibition reaches its midpoint. With `COc1cc(O)c2c(c1)CCC[C@H](O)[C@H](O)C(=O)/C=C\C[C@H](C)OC2=O`, the IC50 in data set [1] turned out to be 4 µM. Take `C[C@]12CCC3=C(C(=O)c4occ5c4[C@]3(C)CCC5=O)[C@@H]1CC[C@@H]2O`: half-maximal inhibition in data set [2] (IC50) required 15 µM.

`CC[C@@H](C)[C@@H]1NC(=O)[C@H]2CCCN2C(=O)[C@@H](CC(C)C)OC(=O)CCNC(=O)[C@H](C)N(C)C(=O)[C@H](C(C)C)N(C)C1=O` returned an IC50 in [3] of 5.4 µM. One may read the EC50 as the midpoint of the concentration-response curve. For `COC[C@H]1O[C@@H](O[C@@H]2C3=C(C(C)C)CC[C@]3(C)/C=C3\[C@@H](CC[C@]3(O)COC)[C@@H](C)[C@H]2O)[C@H](O)[C@H]2OC3O[C@]21O[C@@]3(C)[C@@H]1CO1`, the EC50 in [4] came to 60 µM.

In the case of `C[C@H]1C/C=C/[C@H]2[C@@H]3O[C@]3(C)[C@@H](C)[C@H]3[C@H](Cc4ccccc4)NC(=O)[C@]32OC(=O)O/C=C/[C@@](C)(O)C1=O` [CYTOCHALASIN E], the Activity in [5] was found to be 72%.

As for `C[C@H]1CCC/C=C/C(=O)c2c(O)cc(O)cc2CC(=O)O1` [DEHYDROCURVULARIN], the IC50 in data set [6] turned out to be 15.3 µM. In [7], `C[C@@]12c3ccc4c(c3C(=O)c3occ(c31)C(=O)C[C@H]2O)CCC4=O` [DEMETHOXYVIRIDIN] yielded an IC50 of 0.0066 µM.

The term Kd denotes the free concentration of one partner at which half of the binding sites on the other are occupied at equilibrium, for simple one-to-one binding. The inhibition is the relative decrease from the control value, in per cent. For `COC1=CC(=O)C[C@@H](C)[C@]12Oc1c(Cl)c(OC)cc(OC)c1C2=O` [GRISEOFULVIN], the Kd in data set [8] was 300 µM. Also, in [9], the inhibition is 75%. The compound also registered an IC50 in data set [10] of 25 µM. In data set [11], `CO[C@@H]1[C@H](OC(=O)NC(=O)CCl)CC[C@]2(CO2)[C@H]1[C@@]1(C)O[C@@H]1CC=C(C)C` [O-CHLOROACETYLCARBAMOYLFUMAGILLOL] came in with an IC50 of 0.01 ng/mL (≈ 0.0249 nM).
